Reference: patent US20130012472A1, “COMPOSITION AND METHODS OF INHIBITING GASTROINTESTINAL PATHOGEN INFECTION” (Boston College, priority 2011, published 2013)

Tests used:
ETEC H10407 = test: Bacteria invasion assay (adherence and invasion of ETEC to IECs); assay type: cell-based, Escherichia coli
Procedure: (§1) Intestinal epithelial cells (IECs) such as HCT8, T84, Caco2, H4, and FHs74 cells, were cultured in 24-well tissue culture plates (Corning life Sciences Inc, MA) at 5×10^4 cells/well in antibiotic free media for 48 hours. The IEC cells, with or without treatment of HMOS or TFiLNO, were incubated with a suspension of ETEC H10407 cells (10^5-10^9 cfu) for 1 h at 37° C. […] gentamicin was then added to the culture to kill any extracellular bacteria cells. Cell lysis was performed in 500 μl of 0.5% Triton X-100 (Sigma, Mo.) for 30 minutes at room temperature. The cell lysates were plated on difco agar plates (antibiotic free) at a proper dilution of 500. The total number of cell-associated bacteria was determined as the number of bacteria in IEC lysate immediately after infection. The number of invaded bacteria was determined as those detected in IEC cell lysate prepared from IECs treated with gentamycin for 1 hour after bacterial infection. The number of bacteria adhered to IEC cells was calculated as follows: (The total number of cell-associated bacteria)−(The number of invaded bacteria). All of the adhesion and invasion assays were performed in duplicate in at least three independent experiments.

IL-8 [1] = test: ELISA of IL-8 secretion by ETEC-infected IECs; assay type: cell-based; details: for IL-8 secretion induced by ETEC invasion: ETEC-infected IECs with inhibitors, FIGS. 3D and 3E
Procedure: as §1
(§2) Levels of proinflammatory factors (IL-8, IL-6, TNF-α, and MCP-1) in the culture supernatants of the IECs were measured using ELISA kits from R&D following manufacturer's protocols.

ETEC [2] = test: Bacteria killing assay; assay type: cell-based, Escherichia coli; details: TFiLNO 30 pg/ml; FIG. 6A
ETEC [3] = test: Pre-incubation assay (ETEC pre-incubated with TFiLNO, then invasion of T84 cells); assay type: cell-based, Escherichia coli; details: ETEC pre-incubated 2 h with TFiLNO 30 pg/mL, then T84 cells 1 hour; FIG. 6B
Procedure: ETEC cells in mid-logarithmic growth phase were re-suspended in PBS (pH 7.2) at a concentration of 2×10^8 cells/ml. The suspension was mixed with an equal volume of PBS in the presence or absence of TFiLNO (30 pg/mL), and incubated in U-bottom 96-well plates at room temperature for 2 h with brief mixing every 15 min. At the end of the incubation, the ETEC cells were co-incubated with T84 cells for 1 hour at 37° C. After extracellular bacteria were killed by gentamycin, invaded ETEC were measured as described above.

ETEC [4] = test: Wash-out experiments (IECs pre-incubated with TFiLNO, washed, then ETEC invasion); assay type: cell-based, Escherichia coli; details: IECs incubated 48 hours with 30 pg/mL TFiLNO, washed 6 times with PBS; FIG. 6C
Procedure: IECs were grown in 24-well tissue culture plates (Corning life Sciences Inc, MA) at 5×10^4 cells/well in an antibiotic free medium for 48 hours. The culture medium was then replaced with a fresh medium containing 30 pg/mL TFiLNO. The IECs were further incubated at 37° C. for 48 hours. Supernatants were discarded and cells were washed 6 times with PBS. The cells were then incubated in a fresh medium free of TFiLNO and contains ETEC (10^8). After 1 hour incubation, extracellular bacteria were killed by gentamycin. Invaded ETEC were measured as described previously.

IL-8 [5] = test: LPS-stimulated IL-8 secretion by T84 cells in the absence of ETEC (ELISA); assay type: cell-based; details: TFiLNO 30 pg/ml, 1 h at 37° C., FIG. 7A
Procedure: as §2
To examine the effect of TFiLNO on IL-8 production, this oligosaccharide (30 pg/ml) was incubated with T84 cells in the absence of ETEC for 1 h at 37° C. IL-8 secretion to the culture medium was determined by ELISA. […] See also FIGS. 7B and 7C.

CD14 = CD14 expression on IECs (RT-PCR, FACS); assay type: cell-based, human; details: TFiLNO-treated IECs; FIGS. 7B and 7C
Procedure: IEC cells (e.g., T84 cells) were treated with HMOS (5 mg/mL) prepared as described above for 48 hours. Cells not treated by HMOS were used as a negative control. Total RNAs were purified from the IEC cells and RT-PCR was performed following routine methods to determine the expression levels of genes of interest, including those shown in FIG. 7B. GADPH was used as an internal control. The relative gene expression levels were determined by Delta CT Method. T84 cells treated with or without HMOS were incubated with PE-conjugated mouse anti-human CD14 Mabs. PE-conjugated isotype-matched (IgG1) antibodies were used as controls. Data respecting 20,000 live cells from each sample were collected and subjected to FACS analysis following routine procedures.

Row | Molecule | ETEC invasion of IEC cells (ETEC H10407; cytochalasin D, FIG. 3D) | IL-8 secretion induced by ETEC invasion (IL-8 [1]) | adherence of ETEC to IEC cells (ETEC H10407; TFiLNO 30 pg/ml, FIG. 5A) | invasion of ETEC to IEC cells (ETEC H10407; TFiLNO 30 pg/ml, FIG. 5B) | secretion of IL-8 by the treated IEC cells (IL-8 [1]; TFiLNO 30 pg/ml, ETEC-infected IEC cells, over time, FIG. 5C) | killing of ETEC (ETEC [2]) | invasion of ETEC after pre-incubation of ETEC with TFiLNO (ETEC [3]) | inhibitory activity against ETEC invasion after washing off preincubated TFiLNO (ETEC [4]) | IL-8 secretion stimulated by LPS (IL-8 [5]) | CD14 expression on IECs (CD14)
1 | C=C1[C@@H](C)[C@H]2[C@H](Cc3ccccc3)NC(=O)[C@]23[C@H](OC(C)=O)/C=C/[C@@](C)(O)C(=O)[C@@H](C)C/C=C/[C@H]3[C@@H]1O [cytochalasin D, reference compound] | Inhibition of invasion | inhibited | – | – | – | – | – | – | – | –
2 | polymycin-B | – | reduced | – | – | – | – | – | – | – | –
3 | Trifucosyl(1,2-1,2-1,3)-lacto-N-octoase [TFiLNO] | – | – | inhibit | inhibit | significantly reduced | did not kill | could not be further inhibited | did not affect | directly inhibited | suppression
